Here are results for 1 compound from paper PMC7744773 (Redox Biology, 2020).

The target of this assay is CrGSNOR1 (Chlamydomonas reinhardtii, UniProt A0A2K3D6R4). Put plainly: X-ray crystal structure, […] Å. The following applies: co-crystallised with 1 mM NAD^+, pH 8.5; cofactor-binding domain.

SMILES strings stand for the structures.

Chain of CrGSNOR1 (A0A2K3D6R4 1-378): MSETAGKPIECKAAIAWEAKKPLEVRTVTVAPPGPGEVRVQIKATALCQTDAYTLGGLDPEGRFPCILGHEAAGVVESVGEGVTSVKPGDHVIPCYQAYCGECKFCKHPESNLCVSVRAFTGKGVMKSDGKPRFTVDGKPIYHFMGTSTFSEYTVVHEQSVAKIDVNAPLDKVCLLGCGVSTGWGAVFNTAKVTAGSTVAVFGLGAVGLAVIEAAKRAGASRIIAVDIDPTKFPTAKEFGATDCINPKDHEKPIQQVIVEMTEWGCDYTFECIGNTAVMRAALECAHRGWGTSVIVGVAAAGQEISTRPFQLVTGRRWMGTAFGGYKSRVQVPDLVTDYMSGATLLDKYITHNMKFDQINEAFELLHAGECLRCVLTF

`NC(=O)c1ccc[n+]([C@@H]2O[C@H](COP(=O)(O)OP(=O)(O)OC[C@H]3O[C@@H](n4cnc5c(N)ncnc54)[C@H](O)[C@@H]3O)[C@@H](O)[C@H]2O)c1` [NAD^+]: the “X-ray crystal structure, 2.3 Å” value is “crystal structure of CrGSNOR1 under both apo- and holo-form (NAD^+-CrGSNOR1)”.
